In patent US6461997B1, “Triazole sulfones having herbicidal activity” (Monsanto Technology LLC, priority 1999, dated 2002):

Tested on: soybean (GLYMX)
Test: Selectivity test, PPI, warm season crop
Type: in vivo, Glycine max
Conditions: PPI application, 10 g/ha
Method: (§1) A pre-prepared topsoil mixture (described above) was placed in a pot and compacted to a depth of 1.0 to 1.25 cm from the top of the pot. Seeds of each of several monocotyledonous and dicotyledonous annual plant species were placed on top of the soil. A sufficient quantity of soil to cover the seeds and level fill the pot was weighed into an open container. A known amount of the test compound was dissolved or suspended in an organic solvent and applied by spraying to this cover soil. The cover soil was thoroughly mixed to distribute the test compound throughout the cover soil, and was then applied as a cover layer over the seeds. Untreated soil was used as a cover layer for control pots. After treatment the plants were placed in a greenhouse where they received 0.64 cm of overhead irrigation. All subsequent watering consisted of a light overhead mist and/or subirrigation as needed for germination and growth. Tables 9 and 10 below relate to warm season plant species which were placed after pre-emergence treatment in a greenhouse with a 30/21° C. day/night temperature regime. Tables 11 and 12 below relates to cool season plant species placed after pre-emergence treatment in a greenhouse or growth chamber with an 18/13° C. day/night temperature regime. Only the compounds of Examples 1, 6, 8, 11, 13 and 15-20 were included in PPI tests.
(§2) Approximately 14 days after planting and treating, the plants were observed and herbicidal efficacy recorded as percent inhibition by comparison with untreated plants.
(§3) Additional pre-emergence and PPI tests were conducted by the procedures described above, on warm and cool season weed species in the presence of crop species, to assess herbicidal selectivity. Crop species included in warm season tests were corn (Zea mays, ZEAMX), rice (Oryza sativa, ORYSA) and soybean (Glycine max, GLYMX). Crop species included in cool season tests were wheat (Triticum aestivum, TRZAW), barley (Hordeunm vulgare, HORVX) and oilseed rape (Brassica napus, BRSNS).
(§4) Tables 15 and 16 relate to pre-emergence and PPI tests respectively on warm season species. Table 17 relates to pre-emergence tests on cool season species.

Structure (SMILES)	Percent inhibition GLYMX [%]
CCN(CC)C(=O)n1cnc(S(=O)(=O)C(F)(F)SCCOC)n1 [Example 13]	0
CCN(CC)C(=O)n1cnc(S(=O)(=O)C(F)(F)C(F)F)n1 [Example 16]	0

Same assay, conditions: PPI application, 30 g/ha

Structure (SMILES)	Percent inhibition GLYMX [%]
CCN(CC)C(=O)n1cnc(S(=O)(=O)C(F)(F)Cl)n1 [Example 3]	0
CCN(CC)C(=O)n1cnc(S(=O)(=O)C(F)(F)SCCOC)n1 [Example 13]	0
CCN(CC)C(=O)n1cnc(S(=O)(=O)C(F)(F)C(F)F)n1 [Example 16]	0

Same assay, conditions: PPI application, 100 g/ha

Structure (SMILES)	Percent inhibition GLYMX [%]
CCN(CC)C(=O)n1cnc(S(=O)(=O)C(F)(F)Cl)n1 [Example 3]	0
CCN(CC)C(=O)n1cnc(S(=O)(=O)C(F)(F)SCCOC)n1 [Example 13]	0
CCN(CC)C(=O)n1cnc(S(=O)(=O)C(F)(F)C(F)F)n1 [Example 16]	10

Same assay, conditions: PPI application, 300 g/ha

Structure (SMILES)	Percent inhibition GLYMX [%]
CCN(CC)C(=O)n1cnc(S(=O)(=O)C(F)(F)Cl)n1 [Example 3]	0
CCN(CC)C(=O)n1cnc(S(=O)(=O)C(F)(F)SCCOC)n1 [Example 13]	30
CCN(CC)C(=O)n1cnc(S(=O)(=O)C(F)(F)C(F)F)n1 [Example 16]	10

Same assay, conditions: PPI application, 900 g/ha

Structure (SMILES)	Percent inhibition GLYMX [%]
CCN(CC)C(=O)n1cnc(S(=O)(=O)C(F)(F)Cl)n1 [Example 3]	15
CCN(CC)C(=O)n1cnc(S(=O)(=O)C(F)(F)SCCOC)n1 [Example 13]	70
CCN(CC)C(=O)n1cnc(S(=O)(=O)C(F)(F)C(F)F)n1 [Example 16]	80

Tested on: SORHA (johnsongrass (seedling))
Test: Pre-emergence herbicidal activity, warm season
Type: in vivo, Sorghum halepense
Conditions: GR80 = lowest tested rate (300, 100, 30, 10 g/ha) with 80% or greater inhibition; approx. 14 days after treating; 30/21° C.
Outline: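 GR80 values derive from percent inhibition relative to untreated plants, read roughly 14 days after sowing and pre-emergence soil-surface treatment (compound in 50:50 acetone/water; rates typically 10, 30, 100, 300 g/ha). Warm-season weeds grew at 30/21° C day/night, cool-season ones at 18/13° C; an asterisk marks activity without reaching 80% at the highest rate.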

Structure (SMILES)	Pre-emergence activity (GR80) SORHA [g/ha]
CCN(CC)C(=O)n1cnc(S(=O)(=O)C(F)(F)Cl)n1 [Example 3]	100
CCN(CC)C(=O)n1cnc(S(=O)(=O)C(F)(F)C(F)F)n1 [Example 16]	100

Tested on: ALOMY (blackgrass)
Test: Pre-emergence herbicidal activity, cool season
Type: in vivo, Alopecurus myosuroides
Conditions: GR80 = lowest tested rate (300, 100, 30, 10 g/ha) with 80% or greater inhibition; approx. 14 days after treating; 18/13° C.
Outline: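 Seeds were sown in sterilized, fertilized topsoil, covered, and the soil surface was sprayed with compound in 50:50 acetone/water at 300, 100, 30 and 10 g/ha. Pots were held at 30/21 °C day/night (PANMI, DIGSA) or 18/13 °C (ALOMY, POLCO). GR80 came from percent inhibition versus untreated plants at about 14 days.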

Structure (SMILES)	Pre-emergence activity (GR80) ALOMY [g/ha]
CCN(CC)C(=O)n1cnc(S(=O)(=O)C(F)(F)Cl)n1 [Example 3]	100
CCN(CC)C(=O)n1cnc(S(=O)(=O)C(F)(F)SCCOC)n1 [Example 13]	300
CCN(CC)C(=O)n1cnc(S(=O)(=O)C(F)(F)C(F)F)n1 [Example 16]	100

Tested on: AVEFA (wild oat)
Test: Pre-plant incorporated (PPI) herbicidal activity, cool season
Type: in vivo, Avena fatua
Conditions: pre-plant incorporated; lowest tested rate with 80% or greater inhibition; about 14 days
Method: In another set of tests, the pre-plant incorporated (PPI) activity of compounds of this invention was evaluated on the same species as for the pre-emergence tests described above. In the PPI tests the following procedure, designed to simulate PPI application, was used.
as §1, §2

Structure (SMILES)	PPI activity GR80, AVEFA
CCN(CC)C(=O)n1cnc(S(=O)(=O)C(F)(F)SCCOC)n1 [Example 13]	[empty]
CCN(CC)C(=O)n1cnc(S(=O)(=O)C(F)(F)C(F)F)n1 [Example 16]	300 g/ha

Same assay, conditions: weed, PPI application, 10 g/ha

Structure (SMILES)	Percent inhibition AVEFA [%]
CCN(CC)C(=O)n1cnc(S(=O)(=O)C(F)(F)SCCOC)n1 [Example 13]	0
CCN(CC)C(=O)n1cnc(S(=O)(=O)C(F)(F)C(F)F)n1 [Example 16]	0

Same assay, conditions: weed, PPI application, 30 g/ha

Structure (SMILES)	Percent inhibition AVEFA [%]
CCN(CC)C(=O)n1cnc(S(=O)(=O)C(F)(F)Cl)n1 [Example 3]	20
CCN(CC)C(=O)n1cnc(S(=O)(=O)C(F)(F)SCCOC)n1 [Example 13]	0
CCN(CC)C(=O)n1cnc(S(=O)(=O)C(F)(F)C(F)F)n1 [Example 16]	0

Same assay, conditions: weed, PPI application, 100 g/ha

Structure (SMILES)	Percent inhibition AVEFA [%]
CCN(CC)C(=O)n1cnc(S(=O)(=O)C(F)(F)Cl)n1 [Example 3]	40
CCN(CC)C(=O)n1cnc(S(=O)(=O)C(F)(F)SCCOC)n1 [Example 13]	0
CCN(CC)C(=O)n1cnc(S(=O)(=O)C(F)(F)C(F)F)n1 [Example 16]	0

Same assay, conditions: weed, PPI application, 300 g/ha

Structure (SMILES)	Percent inhibition AVEFA [%]
CCN(CC)C(=O)n1cnc(S(=O)(=O)C(F)(F)Cl)n1 [Example 3]	100
CCN(CC)C(=O)n1cnc(S(=O)(=O)C(F)(F)SCCOC)n1 [Example 13]	50
CCN(CC)C(=O)n1cnc(S(=O)(=O)C(F)(F)C(F)F)n1 [Example 16]	80

Same assay, conditions: weed, PPI application, 900 g/ha

Structure (SMILES)	Percent inhibition AVEFA [%]
CCN(CC)C(=O)n1cnc(S(=O)(=O)C(F)(F)Cl)n1 [Example 3]	80
CCN(CC)C(=O)n1cnc(S(=O)(=O)C(F)(F)SCCOC)n1 [Example 13]	90
CCN(CC)C(=O)n1cnc(S(=O)(=O)C(F)(F)C(F)F)n1 [Example 16]	90

Tested on: barley (HORVX)
Test: Selectivity test, PPI, cool season crop
Type: in vivo, Hordeunm vulgare
Conditions: PPI application, 10 g/ha
Method: as §1, §2, §3, §4

Structure (SMILES)	Percent inhibition HORVX [%]
CCN(CC)C(=O)n1cnc(S(=O)(=O)C(F)(F)SCCOC)n1 [Example 13]	0
CCN(CC)C(=O)n1cnc(S(=O)(=O)C(F)(F)C(F)F)n1 [Example 16]	0

Same assay, conditions: PPI application, 30 g/ha

Structure (SMILES)	Percent inhibition HORVX [%]
CCN(CC)C(=O)n1cnc(S(=O)(=O)C(F)(F)Cl)n1 [Example 3]	0
CCN(CC)C(=O)n1cnc(S(=O)(=O)C(F)(F)SCCOC)n1 [Example 13]	0
CCN(CC)C(=O)n1cnc(S(=O)(=O)C(F)(F)C(F)F)n1 [Example 16]	0

Same assay, conditions: PPI application, 100 g/ha

Structure (SMILES)	Percent inhibition HORVX [%]
CCN(CC)C(=O)n1cnc(S(=O)(=O)C(F)(F)Cl)n1 [Example 3]	0
CCN(CC)C(=O)n1cnc(S(=O)(=O)C(F)(F)SCCOC)n1 [Example 13]	20
CCN(CC)C(=O)n1cnc(S(=O)(=O)C(F)(F)C(F)F)n1 [Example 16]	10

Same assay, conditions: PPI application, 300 g/ha

Structure (SMILES)	Percent inhibition HORVX [%]
CCN(CC)C(=O)n1cnc(S(=O)(=O)C(F)(F)Cl)n1 [Example 3]	10
CCN(CC)C(=O)n1cnc(S(=O)(=O)C(F)(F)SCCOC)n1 [Example 13]	10
CCN(CC)C(=O)n1cnc(S(=O)(=O)C(F)(F)C(F)F)n1 [Example 16]	25

Same assay, conditions: PPI application, 900 g/ha

Structure (SMILES)	Percent inhibition HORVX [%]
CCN(CC)C(=O)n1cnc(S(=O)(=O)C(F)(F)Cl)n1 [Example 3]	80
CCN(CC)C(=O)n1cnc(S(=O)(=O)C(F)(F)SCCOC)n1 [Example 13]	40
CCN(CC)C(=O)n1cnc(S(=O)(=O)C(F)(F)C(F)F)n1 [Example 16]	20

Tested on: LOLMG (annual ryegrass)
Test: Post-emergence herbicidal activity, cool season
Type: in vivo, Lolium multiflorum
Conditions: abraded plants sprayed at 300, 100, 30 and 10 g/ha; about 14 days after treatment
Method: In another set of tests, the post-emergence activity of compounds of this invention was evaluated on the cool season species listed above. The following procedure was used.
A pre-prepared topsoil mixture (described above) was placed in a pot and compacted to a depth of 1.0 to 1.25 cm from the top of the pot. Seeds of each of several monocotyledonous and dicotyledonous annual plant species were placed on top of the soil. The seeds were covered with a mixture of 50% topsoil and 50% Rediearth™ in sufficient quantity to level-fill the pots. The pots were then placed on a greenhouse bench and subirrigated as needed.
When plants growing from the seeds had emerged and reached a suitable growth stage for post-emergence treatment, typically 9 to 14 days after planting, above-ground parts of the plants were subjected to a pre-treatment involving abrasion to create greater opportunity for foliar uptake of subsequently applied compounds. Abrasion was performed using garnet 200w particles applied with a Sears Craftsman hand-held sandblaster operated at approximately 850 kPa (50 psig) pressure.
A known amount of each test compound dissolved or suspended in an appropriate organic solvent was diluted with a 50:50 mix of acetone and water and applied to the plants by spraying with a standard spray nozzle in a spray volume of […] at a spray pressure of 511 kPa (30 psig). Only the compounds of Examples 1, 8-15 and 17-22 were included in post-emergence tests. Application rates for these compounds were 300, 100, 30 and 10 g/ha. Control plants were abraded but not sprayed.
After treatment the plants were placed in a greenhouse with an 18/13° C. day/night temperature regime and were subsequently watered as needed for growth. Approximately 14 days after treatment, the plants were observed and herbicidal efficacy recorded as percent inhibition by comparison with control plants. GR80 values were assigned for each compound as described above for the pre-emergence tests.

Structure (SMILES)	Post-emergence activity GR80, LOLMG
CCN(CC)C(=O)n1cnc(S(=O)(=O)C(F)(F)SCCOC)n1 [Example 13]	[empty]
